The test system of the assay is PBMC-humanized NSG-MHC I/II double knock-out mice with Raji-Luc CD19-expressing cancer cells. The experiment in a line: In vivo (murine) model using CAR T for CRS induction. Further details: species or system mouse. As for the experimental part: An outline of the timeline of the model is provided in FIG. 16; it commences on Study Day −5 and ends on Study Day 10.
Thus, on Study Day −5, 30 female 6- to 8-week-old NSG-(KbDb)null (IA)null mice are irradiated at 100 cGy. 4 hours later, on the same day (Study Day −5) they are each injected, via tail vein, with 0.25×10^6 Raji-Luc CD19-expressing cancer cells (a Raji wild-type cell line with stable and high expression of luciferase, enabling detection of cancer burden by […]).
On Study Day −2, clinical observation commences for all 30 mice (including body weight monitoring) and all 30 mice are imaged using in vivo […] imaging (IVIS). For IVIS, mice are intraperitoneally injected with 150 mg/kg D-Luciferin. 10 minutes after the D-Luciferin injection, mice are imaged dorsally and ventrally (auto exposure) using an IVIS Lumina system (obtainable from PerkinElmer of Chalfont Road, Seer Green, Beaconsfield, HP9 2FX, UK). Region of interest (ROI) are drawn for each mouse to capture its whole body, and total flux (p/s) is reported. IVIS imaging of all 30 mice continues on a biweekly basis throughout the study, thereby monitoring cancer cell burden. Daily clinical observation continues throughout the study, including observation of CRS, CRS being scored as follows:
25 of the mice are injected intraperitoneally, on Study Day 0, with 5×10^6 anti-CD19 CAR T cells in phosphate-buffered saline.
As a control, a group consisting of 5 of the mice (“Group 1”) are not administered CAR T cells. Beginning on Study Day −1 and ending on Study Day 9, Group 1 receive treatment with 0.5% (w:v) HPMC, 0.1% (w:v) Tween 80 in sWFI (vehicle/control), administered BID at 5 mL/kg.
The 25 mice administered CAR T cells are divided into groups of 5 mice per group. […]

The record followed here is patent US20260115177A1, “MEDICINAL PRODUCTS AND METHODS FOR THE ALLEVIATION OF CANCER IMMUNOTHERA-PY-ASSOCIATED CYTOKINE RELEASE SYNDROME” (POOLBEG PHARMA (UK) LIMITED, priority 2023, published 2026).

In the case of `OCCCn1cc2c(-c3ccc(F)cc3)c(-c3ccncc3)c(-c3ccc(F)cc3)nc2n1` [UR-13870, 6-bis(4-fluorophenyl)-5-(4-pyridinyl)-2Hpyrazolo[3,4-b]pyridine-2-propanol], the “CAR T cell expansion (flow cytometry)” value (blood, Study Days 2, 6 and 10) is recorded as “successfully maintained”. Further, the “CAR T cell therapy efficacy, tumour burden (IVIS)” value (day 7 and day 9, UR-13870 2, 10, 25 mg/kg BID s.c., Humira 5 mg/kg i.p. once) is on record as “remained efficacious”. The “number of CAR T cells in circulation” value (day 10, high dose (25 mg/kg BID)) was “significantly enhanced”.
